Test results as given in PubChem BioAssay (NCI).
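Step 1: Grow cells in 96-well plates. Step 2: Expose to compound for 48 hours at 5 concentrations. Step 3: Interpolate endpoints linearly; if unreached, use highest concentration. Abbreviation: GI50, concentration required for 50% inhibition of growth. TGI: total growth inhibition.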

Tests used:
Assay in all cases: DTP human tumour cell line panel, 48 h
DU-145 prostate = system: DU-145 prostate
HL-60(TB) leukemia = system: HL-60(TB) leukemia
NCI-H522 lung = system: NCI-H522 lung
NCI/ADR-RES ovarian = system: NCI/ADR-RES ovarian
OVCAR-8 ovarian = system: OVCAR-8 ovarian
RXF 393 renal = system: RXF 393 renal
SF-268 CNS = system: SF-268 CNS
SF-295 CNS = system: SF-295 CNS
SW-620 colon = system: SW-620 colon
TK-10 renal = system: TK-10 renal

Compound	TGI (DU-145 prostate) [µM]	TGI (HL-60(TB) leukemia) [µM]	TGI (NCI-H522 lung) [µM]	TGI (NCI/ADR-RES ovarian) [µM]	TGI (OVCAR-8 ovarian) [µM]	TGI (RXF 393 renal) [µM]	TGI (SF-268 CNS) [µM]	TGI (SF-295 CNS) [µM]	TGI (SW-620 colon) [µM]	TGI (TK-10 renal) [µM]	GI50 (DU-145 prostate) [µM]	GI50 (HL-60(TB) leukemia) [µM]	GI50 (NCI-H522 lung) [µM]	GI50 (NCI/ADR-RES ovarian) [µM]	GI50 (OVCAR-8 ovarian) [µM]	GI50 (RXF 393 renal) [µM]	GI50 (SF-268 CNS) [µM]	GI50 (SF-295 CNS) [µM]	GI50 (SW-620 colon) [µM]	GI50 (TK-10 renal) [µM]
Brc1cccc(/C=C/CN2CCN(CCOC(c3ccccc3)c3ccccc3)CC2)c1	27.4	27.9	29.3	30.4	29.7	24.6	39.6	32.6	45.4	33.9	–	–	–	–	–	–	–	–	–	–
CSc1ccc2c(cc1=O)[C@@H](NC(C)=O)CCc1cc(O)c(O)c(O)c1-2	> 100	> 100	39.3	58.3	42.3	> 100	38.6	31.2	> 100	34.6	–	–	–	–	–	–	–	–	–	–
C/C(=N/NC(=S)Nc1ccccc1Cl)c1ccccn1	12.8	< 0.0305	8.19	6.53	9.18	11.6	34.6	9.57	29.9	17.1	–	–	–	–	–	–	–	–	–	–
c1ccc(N=C2c3ccccc3CN2c2ccccc2)cc1	> 100	> 100	> 100	> 100	> 100	> 100	> 100	> 100	> 100	> 100	–	–	–	–	–	–	–	–	–	–
S=c1ssc2c3ssc(=S)c3n(Cc3ccccc3)c12	> 100	> 100	> 100	> 100	> 100	34.3	> 100	> 100	> 100	> 100	–	–	–	–	–	–	–	–	–	–
COc1ccc(OC)c(C2CCc3nc4nc(N)nc(N)c4cc3C2)c1 (stereo not given)	17.8	7.86	4.94	> 100	6.93	7.45	10.4	26.5	9.12	23.6	–	–	–	–	–	–	–	–	–	–
CCOC(=O)c1nc2cc(N3CCOCC3)c(F)cc2[nH]c1=O	> 100	> 100	> 100	> 100	> 100	> 100	> 100	> 100	> 100	> 100	–	–	–	–	–	–	–	–	–	–
COc1c2c(c(OC)c3c1c(=O)c1ccccc1n3C)OCO2	> 100	> 25.6	> 43.1	> 100	> 100	> 100	> 100	> 100	> 100	> 100	–	–	–	–	–	–	–	–	–	–
Cc1[nH]c2ncn3nc(C(Cl)(Cl)Cl)nc3c2c1Cc1ccccc1	> 100	> 100	> 100	> 100	> 100	> 100	> 100	> 100	> 100	> 100	–	–	–	–	–	–	–	–	–	–
CN(C1=NCCO1)c1cccc2ccccc12	> 10	> 10	> 10	> 10	> 10	> 10	> 10	> 10	> 10	> 10	–	–	–	–	–	–	–	–	–	–
CCOC(=O)c1c(C)n(Cc2ccccc2)c(=O)c2ccccc2c(=O)c2c(=O)ccc(=O)c1=2	> 100	> 100	62.8	> 100	> 100	40.7	> 100	> 100	> 100	54	–	–	–	–	–	–	–	–	–	–
CN1CCCN2CCN(C)CCN(CC1)CC2	> 100	> 100	> 100	> 100	> 100	> 100	> 100	> 100	> 100	> 100	–	–	–	–	–	–	–	–	–	–
CCOc1c2ccsc2c(OCC)c2ccsc12	> 100	7.43	> 28.9	> 100	> 100	> 24.2	> 100	9.84	> 100	> 100	–	–	–	–	–	–	–	–	–	–
CCOC(=O)c1cc2cc(N(C(C)=O)C(C)=O)ccc2s1	> 100	39.2	55.3	> 100	93.2	42.7	80.6	> 100	> 100	> 100	–	–	–	–	–	–	–	–	–	–
CN1C2CCC1CC(OC(c1ccccc1)c1ccccc1)C2 (stereo not given)	> 100	36.2	28.1	34.3	29.9	42.3	41.5	23.5	27.6	44.5	–	–	–	–	–	–	–	–	–	–
CCOP(=O)(OCC)C(NC(=O)OCC(Cl)(Cl)Cl)n1nnc(C(=O)OC)c1C(=O)OC (stereo not given)	> 100	> 100	> 100	> 100	> 100	> 100	> 100	> 100	> 100	> 100	–	–	–	–	–	–	–	–	–	–
CCc1ccc(-c2nnc(COc3ccc(-c4nc5ccc(C)cc5[nH]4)cc3OC)o2)cc1	> 100	4.26	25.2	37.5	> 100	3.29	> 100	5.75	62.4	5.61	5.98	2.01	3.1	3.28	5.08	1.75	4.47	2.33	3.75	2.72
COC(=O)c1ccccc1C1CN=NC12Cc1ccc3ccccc3c1C2=O (stereo not given)	> 100	> 100	> 100	> 100	> 100	> 100	> 100	> 100	> 100	> 100	–	–	–	–	–	–	–	–	–	–
CCOC(=O)C1C(=O)CC(O)(OCC)C(C(=O)OCC)C1c1ccc(OC)cc1 (stereo not given)	> 100	> 100	> 100	> 100	> 100	> 100	> 100	> 100	> 100	> 100	–	–	–	–	–	–	–	–	–	–
Cc1ccc(/C=C2\CN(C)CC3=C2OC(N)=C(C#N)C3c2ccc(C)cc2)cc1 (stereo not given)	44.7	> 100	> 49.9	> 100	> 92	28.3	> 100	46	> 100	> 80.8	–	–	–	–	–	–	–	–	–	–
C=C(O)c1ccccc1C#Cc1ccccc1C(=O)OC	> 10	> 10	> 10	> 10	> 10	> 10	> 10	> 10	> 10	> 10	–	–	–	–	–	–	–	–	–	–
Cn1c(=O)oc2cc(C(=O)CSC(=S)N3CCCCCC3)ccc21	> 100	> 100	> 100	> 100	> 100	> 100	> 100	> 100	> 100	> 100	–	–	–	–	–	–	–	–	–	–
S=c1[nH]nc(COc2ccc3c(c2)CCCC3)n1/N=C/c1ccc(Cl)cc1	33	40.7	28.9	33.7	31.8	28.8	43	33.7	32.7	38.6	–	–	–	–	–	–	–	–	–	–
CC(=O)N=C(N=Nc1c(O)[nH]c2ccc(C)cc12)NC(C)=O	> 100	> 100	> 100	> 100	> 100	> 100	> 100	> 100	> 100	> 100	–	–	–	–	–	–	–	–	–	–
Cc1c(N2C(=O)/C(=C/C=C/c3ccccc3)N=C2c2ccccc2)c(=O)n(-c2ccccc2)n1C	> 100	35.7	32.6	55	77.6	33.2	68.9	40	99.4	> 100	–	–	–	–	–	–	–	–	–	–
CCOC(=O)/C(C#N)=C/c1ccc2c(-c3c(OCC)ccc4cc(/C=C(\C#N)C(=O)OCC)ccc34)c(OCC)ccc2c1	> 100	> 100	> 100	> 100	> 100	> 100	> 100	> 100	> 100	> 100	–	–	–	–	–	–	–	–	–	–
O=C(Cn1c(=O)ccn(C2OC(CO)C(O)C2F)c1=O)c1ccc(F)cc1 (stereo not given)	> 100	> 100	> 100	> 100	> 100	> 100	> 100	> 100	> 100	> 100	–	–	–	–	–	–	–	–	–	–
CC/C(=N\NC(=O)c1cccnc1)c1ccc2c(c1)OCCO2	> 100	> 100	79.5	> 100	> 100	> 100	> 100	> 100	> 100	> 100	–	–	–	–	–	–	–	–	–	–
